Experimental data from ChEMBL document CHEMBL6134863, “Novel Mitochondria-Targeted Asymmetric Heptamethine Cyanine Dye for Cancer Targeted NIR Imaging and Potent Necrosis and Senescence Induction with Prolonged Retention” (J Med Chem, 2025).

Legend:
[1] = Distribution coefficient, logD of compound; format: physicochemical; details: octanol/water
[2] = Partition coefficient, logP of compound; format: physicochemical; details: octanol/water
[3] = Solubility of compound in DMSO-H2O; format: physicochemical
[4] = Drug accumulation in tumor to muscle of BALB/c mouse implanted with mouse 4T1 cells at 0.5 mg/kg, iv measured at 4 to 168 hrs; format: ADME, organism-based; details: in vivo, time 4-168 hrs
[5] = Drug uptake in mouse 4T1 cells assessed as increase in red fluorescence intensity at 5 uM incubated for 30 mins by CY7 staining based microscopic analysis; format: ADME, cell-based; details: 4t1, 0.5 h
[6] = Drug uptake in mouse 4T1 cells assessed as increase in green fluorescence intensity at 5 uM incubated for 30 mins by F-actin staining staining based microscopic analysis; format: ADME, cell-based; details: 4t1, 0.5 h
[7] = Drug uptake in human NCI-H226 cells assessed as increase in red fluorescence intensity at 5 uM incubated for 30 mins by CY7 staining based microscopic analysis; format: ADME, cell-based; details: nci-h226, 0.5 h
[8] = Drug uptake in human NCI-H226 cells assessed as increase in green fluorescence intensity at 5 uM incubated for 30 mins by F-actin staining staining based microscopic analysis; format: ADME, cell-based; details: nci-h226, 0.5 h

| SMILES | logD [1] | logP [2] | solubility [3] [µg/mL] | Drug uptake [4] | Drug uptake [5] | Drug uptake [6] | Drug uptake [7] | Drug uptake [8] |
| --- | --- | --- | --- | --- | --- | --- | --- | --- |
| CC(C)(C)OC(=O)Nc1ccc2c(c1)C(C)(C)C(/C=C/C1=C(Cl)C(=C/C=C3/N(Cc4ccc(C(=O)O)cc4)c4ccc(NC(=O)OC(C)(C)C)cc4C3(C)C)/CCC1)=[N+]2Cc1ccc(C(=O)O)cc1 | 3.78 | 6.92 |  |  |  |  |  |  |
| CC1(C)C(/C=C/C=C/C=C/C=C2/N(Cc3ccc(C(=O)O)cc3)c3ccc4ccccc4c3C2(C)C)=[N+](Cc2ccc(C(=O)O)cc2)c2ccc3ccccc3c21.[Br-] | 3.59 | 7.06 | 170 |  |  |  |  |  |
| CC1(C)C(/C=C/C2=C(Cl)C(=C/C=C3/N(CCOc4ccccc4C(=O)O)c4ccc5ccccc5c4C3(C)C)/CCC2)=[N+](CCOc2ccccc2C(=O)O)c2ccc3ccccc3c21 | 3.73 | 7.27 |  |  |  |  |  |  |
| CC1(C)C(/C=C/C=C/C=C/C=C2/N(CCCOc3ccc(C(=O)O)cc3)c3ccc4ccccc4c3C2(C)C)=[N+](CCCOc2ccc(C(=O)O)cc2)c2ccc3ccccc3c21.[Br-] | 3.79 | 7.26 | 170 |  |  |  |  |  |
| COC(=O)CCC(=O)CNC(=O)c1ccc(CN2/C(=C/C=C3\CCCC(/C=C/C4=[N+](Cc5ccc(C(=O)NCC(=O)CCC(=O)OC)cc5)c5ccc6ccccc6c5C4(C)C)=C3Cl)C(C)(C)c3c2ccc2ccccc32)cc1.[Br-] | 5.28 | 7.21 |  | Active |  |  |  |  |
| CC1(C)C(/C=C/C2=C(Cl)C(=C/C=C3/N(CCCOc4ccc(C(=O)O)cc4)c4ccc5ccccc5c4C3(C)C)/CCC2)=[N+](CCCOc2ccc(C(=O)O)cc2)c2ccc3ccccc3c21.[Br-] | 4.19 | 7.24 |  | Active |  |  |  |  |

The next lines start with the values.

| logD [1] | logP [2] | solubility [3] [µg/mL] | Drug uptake [4] | Drug uptake [5] | Drug uptake [6] | Drug uptake [7] | Drug uptake [8] | SMILES |
| --- | --- | --- | --- | --- | --- | --- | --- | --- |
| 3.92 | 5.36 |  |  |  |  |  |  | COC(=O)C(C)NC(=O)CCN1/C(=C/C=C2\CCCC(/C=C/C3=[N+](CCC(=O)NC(C)C(=O)OC)c4ccccc4C3(C)C)=C2Cl)C(C)(C)c2ccccc21 (stereo unspecified) |
| 4.74 | 6.14 |  | Active |  |  |  |  | Cc1ccc2c(c1)C(C)(C)C(/C=C/C1=C(Cl)C(=C/C=C3/N(Cc4ccc(C(=O)O)cc4)c4ccc(C)cc4C3(C)C)/CCC1)=[N+]2Cc1ccc(C(=O)O)cc1.[Br-] |
| 3.22 | 5.6 |  |  |  |  |  |  | CC1(C)C(/C=C/C2=C(Cl)C(=C/C=C3/N(Cc4ccc(C(=O)O)cc4)c4ccc(N)cc4C3(C)C)/CCC2)=[N+](Cc2ccc(C(=O)O)cc2)c2ccc(N)cc21 |
| 3.39 | 6.18 |  |  |  |  |  |  | COC(=O)CNC(=O)CCN1/C(=C/C=C2\CCCC(/C=C/C3=[N+](CCC(=O)NCC(=O)OC)c4ccc5ccccc5c4C3(C)C)=C2Cl)C(C)(C)c2c1ccc1ccccc21 |
| 4.24 | 5.89 |  | Active | Not_active | Not_active | Not_active | Not_active | CCN1/C(=C/C=C2\CCCC(/C=C/C3=[N+](Cc4ccc(C(=O)O)cc4)c4ccccc4C3(C)C)=C2Cl)C(C)(C)c2ccccc21.[Br-] |
| 5.6 | 7.23 |  | Active |  |  |  |  | COC(=O)CNC(=O)c1ccc(CN2/C(=C/C=C3\CCCC(/C=C/C4=[N+](Cc5ccc(C(=O)NCC(=O)OC)cc5)c5ccc6ccccc6c5C4(C)C)=C3Cl)C(C)(C)c3c2ccc2ccccc32)cc1.[Br-] |
| 5.51 | 7.45 |  | Active |  |  |  |  | COC(=O)CNC(=O)c1ccc(OCCCN2/C(=C/C=C3\CCCC(/C=C/C4=[N+](CCCOc5ccc(C(=O)NCC(=O)OC)cc5)c5ccc6ccccc6c5C4(C)C)=C3Cl)C(C)(C)c3c2ccc2ccccc32)cc1.[Br-] |
| 4.02 | 6.41 |  | Active |  |  |  |  | Cc1ccc2c(c1)C(C)(C)C(/C=C/C1=C(Cl)C(=C/C=C3/N(CCCOc4ccc(C(=O)O)cc4)c4ccc(C)cc4C3(C)C)/CCC1)=[N+]2CCCOc1ccc(C(=O)O)cc1.[Br-] |
